Measurements: patent US6451800B1, “Phenylpiperazine derivatives as integrin αvβ3 antagonists” (Meiji Seika Kaisha, Ltd., priority 1998, dated 2002)

How the values were obtained:
[1] = target: T1, integrin αvβ3 (vitronectin receptor purified from the human placenta) (Homo sapiens, UniProt P05106+P06756); assay: αvβ3 binding assay (vitronectin-vitronectin receptor binding assay); settings: vitronectin receptor from human placenta; read-out: IC50, inhibition of binding between vitronectin and vitronectin receptor (αvβ3 binding inhibitory activity)
T1 construct: a vitronectin receptor (protein content: 118 μg/ml) purified from the human placenta; from tissue; host or cells: human placenta
T1 sequence (P06756 31-889 limits assumed): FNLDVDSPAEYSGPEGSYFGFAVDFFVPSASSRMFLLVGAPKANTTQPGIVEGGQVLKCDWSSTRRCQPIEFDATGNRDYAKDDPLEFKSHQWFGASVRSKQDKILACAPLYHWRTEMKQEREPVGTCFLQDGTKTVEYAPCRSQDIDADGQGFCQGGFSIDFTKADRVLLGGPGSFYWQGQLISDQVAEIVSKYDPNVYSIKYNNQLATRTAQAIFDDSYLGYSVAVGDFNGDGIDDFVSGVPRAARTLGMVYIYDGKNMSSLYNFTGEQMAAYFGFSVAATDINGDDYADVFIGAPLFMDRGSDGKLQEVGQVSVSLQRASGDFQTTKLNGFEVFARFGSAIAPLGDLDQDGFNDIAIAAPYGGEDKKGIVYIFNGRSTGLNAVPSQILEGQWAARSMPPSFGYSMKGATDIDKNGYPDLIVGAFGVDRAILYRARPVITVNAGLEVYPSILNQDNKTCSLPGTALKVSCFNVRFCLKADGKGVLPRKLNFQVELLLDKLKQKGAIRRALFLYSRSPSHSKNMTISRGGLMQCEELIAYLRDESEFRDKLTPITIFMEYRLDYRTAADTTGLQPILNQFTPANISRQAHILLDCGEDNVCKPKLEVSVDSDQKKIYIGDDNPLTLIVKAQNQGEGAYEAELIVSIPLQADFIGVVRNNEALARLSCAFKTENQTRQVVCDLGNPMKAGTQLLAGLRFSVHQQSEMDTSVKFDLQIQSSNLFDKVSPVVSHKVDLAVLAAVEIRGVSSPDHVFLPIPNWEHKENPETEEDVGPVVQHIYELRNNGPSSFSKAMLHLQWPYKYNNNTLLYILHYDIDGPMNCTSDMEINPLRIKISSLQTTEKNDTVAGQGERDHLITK
T1 sequence (P06756 891-1048 partner limits assumed): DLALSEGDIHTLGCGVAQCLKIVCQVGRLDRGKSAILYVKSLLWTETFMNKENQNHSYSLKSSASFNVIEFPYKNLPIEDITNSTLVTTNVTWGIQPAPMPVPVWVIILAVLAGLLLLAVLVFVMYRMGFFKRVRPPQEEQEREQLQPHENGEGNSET
T1 sequence (P05106 27-788): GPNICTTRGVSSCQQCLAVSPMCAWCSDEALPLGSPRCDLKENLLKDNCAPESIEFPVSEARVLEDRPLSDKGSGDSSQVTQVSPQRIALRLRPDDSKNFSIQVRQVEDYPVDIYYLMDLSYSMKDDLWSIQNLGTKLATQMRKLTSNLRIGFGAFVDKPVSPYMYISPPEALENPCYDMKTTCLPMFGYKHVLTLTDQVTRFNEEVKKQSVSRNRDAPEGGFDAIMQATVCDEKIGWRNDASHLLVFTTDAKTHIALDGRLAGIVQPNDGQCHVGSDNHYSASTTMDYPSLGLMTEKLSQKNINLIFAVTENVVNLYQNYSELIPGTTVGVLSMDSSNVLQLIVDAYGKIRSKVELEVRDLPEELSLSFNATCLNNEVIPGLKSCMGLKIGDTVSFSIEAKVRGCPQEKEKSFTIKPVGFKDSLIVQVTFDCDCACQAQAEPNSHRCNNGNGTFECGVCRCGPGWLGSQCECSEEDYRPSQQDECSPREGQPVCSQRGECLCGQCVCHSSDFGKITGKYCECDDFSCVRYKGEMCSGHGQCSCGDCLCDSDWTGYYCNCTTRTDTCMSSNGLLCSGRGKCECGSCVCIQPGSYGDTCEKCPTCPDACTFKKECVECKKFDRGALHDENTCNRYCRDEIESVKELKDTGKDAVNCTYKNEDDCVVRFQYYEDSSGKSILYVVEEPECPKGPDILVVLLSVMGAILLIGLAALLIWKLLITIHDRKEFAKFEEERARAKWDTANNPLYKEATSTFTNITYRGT
Experimental: Integrin αvβ3 antagonistic activity was measured for the compounds according to the present invention in a vitronectin-vitronectin receptor binding assay system in accordance with the method of Kouns et al. (W. C. Kouns, D. Kirchhofer, P. Hadvary, A. Edenhofer, T. Weller, G. Pfenninger, H. R. Baumgartner, L. K. Jennings and B. Steiner, Blood, 8, 2539-2547 (1992)).
Specifically, a vitronectin receptor (protein content: 118 μg/ml) purified from the human placenta in accordance with the method of Pytela et al. (R. Pytela, M. D. Pierschbacher, S. Argraves, S. Suzuki, and E. Ruoslahti, Method in Enzymology, 144, 475-489 (1987)) was diluted 50 times with TBS (20 mM Tris-HCl, 150 mM NaCl, 1 mM CaCl2, 1 mM MgCl2, pH 7.4), and distributed and coated on wells (50 μl/well) of a plate (Maxisorp, Nunc, 96 well Immuno Plate). The plate was then allowed to stand at 4° C. for 1 day, washed twice with TBS (200 μl/well), and then subjected to blocking with TBS (150 μl/well) containing 1% bovine serum albumin (SIGMA) at 4° C. overnight. After washing twice with TBS (200 μl/well), 50 μl of vitronectin (CALBIOCHEM) adjusted to 0.2 μg/ml by the addition of TBS (TBS-Tween) containing 0.01% Tween-20 was mixed with 50 μl of each test compound adjusted to each concentration in wells, and a reaction was allowed to proceed at room temperature for 4 hr. After the completion of the reaction, the wells were washed five times with TBS-Tween. A solution prepared by diluting anti-vitronectin rabbit antiserum (CHEMICON) 500 times with TBS-Tween was added as a primary antibody in an amount of 50 μl per well, and a reaction was allowed to proceed at room temperature for 1.5 hr. After washing five times with 200 μl/well of TBS-Tween, a peroxidase (POD)-labeled anti-rabbit IgG antibody solution (CAPPEL) diluted 500 times with TBS-Tween was added as a secondary antibody in an amount of 50 μl/well, and a reaction was allowed to proceed at room temperature for 1.5 hr. After washing five times with TBS-Tween (200 μl /well), ABTS (2,2′-azino-bis(3-ethylbenzthiazoline-6-sulfonic acid), SIGMA) was adjusted to 1 mg/ml by the addition of a ten-fold diluted POD-buffer (ZYMED), and added in an amount of 50 μl/well, and a reaction was allowed to proceed for 5 to 10 min. A 0.1 M citric acid buffer (pH 4.3) containing 0.05% NaN3 was added in an amount of 50 μl/well to stop the reaction, followed by the measurement of the absorbance at 415 nm with a microplate reader (MTP 32, Corona Electric) (reference: 675 nm). The total binding was defined as the absorbance after a reaction using 50 μl of TBS-Tween instead of the test compound, and the non-specific binding (100% inhibition) was defined as the absorbance after a reaction using 50 μl of TBS-Tween containing 2×10^−3 M RGDS. The inhibition was calculated by the following equation: [formula]
IC50 was determined from a primary regression line of the logarithm of each concentration of the test compound and the logarithm of (100−inhibition)/inhibition.

[2] = system: human vascular smooth muscle cells; assay: Inhibition of adhesion of human vascular smooth muscle cells to immobilized human vitronectin; format: cell-based; settings: read-out: IC50, inhibitory activity against the adhesion of human vascular smooth muscle cells to vitronectin
Experimental: Inhibitory Activity Against Adhesion of Human Vascular Smooth Muscle Cells to Vitronectin
The adhesion of human vascular smooth muscle cells to immobilized human vitronectin was measured in accordance with the method of Liaw et al. (Liaw L, Almeida M, Hart C E, Schwartz S M, and Giachelli C M, Circulation Research, 74 (2), 214-224 (1994)).
A Dulbecco's phosphate buffer (Dulbecco's PBS(−), Nissui Pharmaceutical Co., Ltd.) solution of human plasma-derived vitronectin (CALBIOCHEM) adjusted to a concentration of 4 μg/ml was first added to wells (50 μl/well) of a microplate (Maxisorp, Nunc), and a reaction for immobilization was allowed to proceed at 4° C. overnight. […]
Next, 50 μl of a Dulbecco's modified Eagle's basal medium containing 10 mg/ml of bovine serum albumin with a medicament added thereto was added to the wells of the human vitronectin-coated assay microplate, followed by pre-cultivation under 5% carbon dioxide at 37° C. for 10 min. […] The absorbance of the microplate thus obtained was measured at 595 nm. […] The inhibition was calculated by the following equation. IC50 was determined from a primary regression line of the logarithm of each concentration of the test compound and the logarithm of (100−inhibition)/inhibition. […]

[3] = target: GP IIb/IIIa (Homo sapiens, UniProt P05106+P08514); assay: GP IIb/IIIa antagonistic activity (method of Pharmacological Test 2 in WO 94/21599); format: binding
GP IIb/IIIa, sequence (P08514 32-887 limits assumed): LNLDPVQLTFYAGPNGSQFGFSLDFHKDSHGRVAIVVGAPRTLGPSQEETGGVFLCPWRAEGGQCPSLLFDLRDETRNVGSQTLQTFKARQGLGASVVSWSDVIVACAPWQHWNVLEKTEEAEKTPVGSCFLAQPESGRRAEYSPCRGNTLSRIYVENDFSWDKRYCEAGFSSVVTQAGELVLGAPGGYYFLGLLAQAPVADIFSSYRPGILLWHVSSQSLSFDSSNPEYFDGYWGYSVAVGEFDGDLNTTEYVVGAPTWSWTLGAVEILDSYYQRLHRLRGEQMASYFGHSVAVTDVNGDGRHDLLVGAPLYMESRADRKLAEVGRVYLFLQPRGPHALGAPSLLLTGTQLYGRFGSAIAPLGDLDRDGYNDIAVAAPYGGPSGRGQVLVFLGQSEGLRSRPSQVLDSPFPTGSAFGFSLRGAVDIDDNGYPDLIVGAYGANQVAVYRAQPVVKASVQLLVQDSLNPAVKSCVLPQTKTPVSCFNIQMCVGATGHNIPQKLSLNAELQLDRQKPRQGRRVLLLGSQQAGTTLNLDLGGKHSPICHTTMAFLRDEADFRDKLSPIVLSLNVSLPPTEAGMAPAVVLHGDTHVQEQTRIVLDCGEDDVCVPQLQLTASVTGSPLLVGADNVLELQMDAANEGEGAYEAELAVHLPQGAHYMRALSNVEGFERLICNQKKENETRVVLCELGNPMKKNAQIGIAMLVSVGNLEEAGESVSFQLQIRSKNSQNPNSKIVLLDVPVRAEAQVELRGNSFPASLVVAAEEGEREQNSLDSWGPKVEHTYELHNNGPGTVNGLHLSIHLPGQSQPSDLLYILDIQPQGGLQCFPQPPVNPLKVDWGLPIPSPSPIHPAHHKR
GP IIb/IIIa, sequence (P08514 891-1039 partner limits assumed): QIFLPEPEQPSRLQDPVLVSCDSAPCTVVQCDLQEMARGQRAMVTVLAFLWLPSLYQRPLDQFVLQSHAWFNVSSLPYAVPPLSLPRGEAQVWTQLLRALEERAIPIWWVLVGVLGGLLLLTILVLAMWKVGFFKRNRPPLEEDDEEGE
GP IIb/IIIa, sequence (P05106 27-788): as the sequence (P05106 27-788) above
Experimental: (§1) GP IIb/IIIa Antagonistic Activity and Human Platelet Aggregation Inhibitory Activity
GP IIb/IIIa antagonistic activity was measured for the compounds according to the present invention. The measurement of the GP IIb/IIIa antagonistic activity was carried out according to the method described in Pharmacological Test 2 in WO 94/21599.

[4] = system: human platelet aggregation; assay: Human platelet aggregation inhibitory activity (method of Pharmacological Test 1 in WO 94/21599); format: cell-based
Experimental: as §1
Human platelet aggregation inhibitory activity was measured for the compounds according to the present invention. The measurement of the human platelet aggregation activity was carried out according to the method described in Pharmacological Test 1 in WO 94/21599.

[5] = system: mice; assay: Acute toxicity test, intravenous administration to mice; format: in vivo; settings: 12.5 mg/kg
Source text: The compound of Example 3 was intravenously administered to mice.

[6] = Oral absorption in rats; format: in vivo; settings: data not shown
Source text: Therefore, any of the compounds, wherein R^9 represents an alkyl group or a hydrogen atom, can be used in the treatment of the above diseases.

Question: With `O=C(N[C@@H](CNC(=O)c1ccc(N2CCN(C3=NCCCN3)CC2)cc1)C(=O)O)OCc1ccccc1` [Example 30, (2S)-Benzyloxycarbonylamino-3-[4-{4-(1,4,5,6-tetrahydropyrimidin-2-yl)-piperazin-1-yl}-benzoylamino]-propionic Acid] as the compound, how does the IC50 [1] read?
Answer: Its IC50 is 31 nM.

Question: And the IC50 [2]?
Answer: Its IC50 is 750 nM.

Question: Which results are given for `O=C(NC[C@H](NS(=O)(=O)c1ccccc1)C(=O)O)c1ccc(N2CCN(C3=NCCCN3)CC2)cc1` [Example 3, (2S)-Benzenesulfonylamino-3-[4-{4-(1,4,5,6-tetrahydropyrimidin-2-yl)-piperazin-1-yl}-benzoylamino]-propionic acid]?
Answer: GP IIb/IIIa antagonistic activity (in words) [3]: extremely high GP IIb/IIIa antagonistic activity; human platelet aggregation inhibition (in words) [4]: very strongly inhibited human platelet aggregation; IC50 ([4]; read-out: IC50, human platelet aggregation inhibition): 34 nM; acute toxicity, symptoms [5]: no special symptom was developed; oral absorption [6]: excellent oral absorption
